Values of other authors in patent publication US20240377385A1, “METHODS AND COMPOSITIONS OF MATTER FOR TREATING CANCER AND PREDICTING RESPONSE TO THERAPY” (ICCA INC., priority 2023, published 2024).

Assays:
[1] = test system: monocytes derived from human peripheral blood; details: 12 hour exposure; cited from earlier work
[2] = test system: T cell and B cell; details: high dose; in vitro; cited from earlier work
[3] = test system: PAIII androgen-independent syngeneic prostate cancer cell line; details: daily intraperitoneal administration for 30 days, evaluation at day 40; cited from earlier work
[4] = test system: HUVEC; details: in vitro; cited from earlier work
[5] = test system: battery of tumor cell lines; details: in vitro; cited from earlier work
[6] = test system: dendritic cells; details: cited from earlier work
[7] = test system: S-180 sarcoma; details: parenteral administration; cited from earlier work
[8] = test system: human xenografted glioma, ovarian, and neuroblastoma cells; details: cited from earlier work
[9] = test system: NK; details: high dose; cited from earlier work
[10] = test system: hypoxia inducible factor (HIF)-1; details: cited from earlier work
[11] = test system: neovascularization; details: cited from earlier work
[12] = test system: vascular cord formation; details: in vivo administration; cited from earlier work

| SMILES | FcgammaR-mediated cytokine production and antibody-dependent cellular cytotoxicity by monocytes [1] | T cell and B cell proliferative responses as well as IL-2 secretion [2] | pulmonary and lymphatic metastasis [3] | tumor growth [3] | HUVEC proliferation [4] | cytotoxicity of Docetaxel, Epirubicin, Irinotecan and 5-FU [5] | T cell activating ability of dendritic cells [6] | angiogenesis and the pro-angiogenic factors bFGF, VEGF, and MMP-2 [7] | tumor growth [7] | in vivo inhibition of xenografted cells [8] | NK cytotoxic activity [9] | activation of the hypoxia inducible factor (HIF)-1 [10] | neovascularization [11] | vascular cord formation [12] |
| --- | --- | --- | --- | --- | --- | --- | --- | --- | --- | --- | --- | --- | --- | --- |
| CCOCc1nc2c(N)nc3ccccc3c2n1CC(C)(C)O [Group R-848, resiquimod] | increased |  |  |  |  |  |  |  |  |  |  |  |  |  |
| O=C1O[C@H]([C@@H](O)CO)C(O)=C1O [AA, ascorbic acid] |  | inhibits | reduction | significant inhibition | inhibits | Enhancement | inhibit | suppression | reduced tumor growth | successful in vivo inhibition | inhibits | suppresses activation | suppressing neovascularization | suppressed vascular cord formation |
